Data as given in patent US9265253B2, “Use of macrocyclic picolinamides as fungicides” (DOW AGROSCIENCES LLC, priority 2013, dated 2016).
Like-named read-outs stand apart in the source and are kept apart here.

How the values were obtained:
Type in all cases: in vivo
[1] = system: Phakopsora pachyrhizi; assay: Asian Soybean Rust (PHAKPA) disease control; details: for pest or weed control at 25 ppm: Phakopsora pachyrhizi, topical
Summary of the method: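 Compounds in acetone diluted with nine volumes water containing 0.011% Tween 20, sprayed to run-off on two-week-old Williams 82 soybean seedlings, inoculated 3 days before or 1 day after treatment. Plants held 24 h in dark dew room at 22 °C, 100% RH, then at 23 °C; disease severity scored on sprayed leaves.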

[2] = system: Mycosphaerella graminicola; Anamorph: Septoria tritici; assay: Leaf Blotch of Wheat (SEPTTR) disease control; details: Zymoseptoria tritici; for pest or weed control at 100 ppm: rate 100 ppm
Summary of the method: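 Wheat seedlings (Yuma, first leaf emerged) sprayed to run-off with compound in acetone/water with 110 ppm Triton X-100, or track-sprayed as EC with 0.1% Trycol 5941. Septoria tritici spores inoculated before or after treatment. Dew chambers, then 20 °C greenhouse. Percent disease control derived from severity (0–100%) relative to untreated plants.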

[3] = system: Venturia inaequalis; assay: Apple Scab (VENTIN) disease control; details: Venturia inaequalis, topical, 24 h, 1 Day Protectant, read-out: Disease Control VENTIN 1 DP
Protocol: Technical grades of materials were dissolved in acetone, which were then mixed with nine volumes of water containing 110 ppm Triton X-100. The fungicide solutions were applied onto wheat seedlings using an automated booth sprayer to run-off. All sprayed plants were allowed to air dry prior to further handling. All fungicides were evaluated using the aforementioned method for their activity vs. all target diseases. Wheat leaf blotch and brown rust activity were also evaluated using track spray applications, in which case the fungicides were formulated as EC formulations, containing 0.1% Trycol 5941 in the spray solutions. Wheat plants (variety Yuma) were grown from seed in a greenhouse in 50% mineral soil/50% soil-less Metro mix until the first leaf was fully emerged, with 7-10 seedlings per pot. These plants were inoculated with an aqueous spore suspension of Septoria tritici either prior to or after fungicide treatments. After inoculation the plants were kept in 100% relative humidity (one day in a dark dew chamber followed by two to three days in a lighted dew chamber at 20° C.) to permit spores to germinate and infect the leaf. The plants were then transferred to a greenhouse set at 20° C. for disease to develop. When disease symptoms were fully expressed on the 1st leaves of untreated plants, infection levels were assessed on a scale of 0 to 100 percent disease severity. Percent disease control was calculated using the ratio of disease severity on treated plants relative to untreated plants. Apple seedlings (variety McIntosh) were grown in soil-less Metro mix, with one plant per pot. Seedlings with two expanding young leaves at the top (older leaves at bottom of the plants were trimmed) were used in the test. Plants were inoculated with a spore suspension of Venturia inaequalis 24 hr after fungicide treatment and kept in a 22° C. dew chamber with 100% RH for 48 hr, and then moved to a greenhouse set at 20° C. for disease to develop. Fungicide formulation, application and disease assessment on the sprayed leaves followed the procedures as described in the Example A.

[4] = system: Puccinia triticina; Synonym: Puccinia recondite f. Sp. Tritici; assay: Wheat Brown Rust (PUCCRT) disease control; details: for pest or weed control at 100 ppm / pest or weed control at 121.5 g/ha: Puccinia triticina, topical; for pest or weed control at 100 ppm: rate 100 ppm
Summary of the method: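 Brown rust on first-leaf Yuma wheat: spore inoculation before or after spray application (acetone/Triton X-100 solution, or EC with Trycol in track spray), overnight 100% RH at 22 °C, disease developed at 24 °C. Severity scored 0–100% and converted to percent control against untreated.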

[5] = system: Magnaporthe grisea; Anamorph: Pyricularia oryzae; assay: whole plant or invertebrate; details: Pyricularia oryzae, topical, 24 h, read-out: Disease Control PYRIOR 1 DP
[6] = 24 h, 1 Day Protectant, read-out: Disease Control PHAKPA 1DP
[7] = 72 h, 3 Day Curative, read-out: Disease Control PHAKPA 3DC
[8] = 24 h, 1 Day Protectant, read-out: SEPTTR 1 DP disease control
[9] = 24 h, 1 Day Protectant, rate 121.5 g/H, read-out: SEPTTR 1 DP disease control
[10] = 72 h, 3 Day Curative, read-out: SEPTTR 3 DC disease control
[11] = 72 h, 3 Day Curative, rate 121.5 g/H, read-out: SEPTTR 3 DC disease control
[12] = 24 h, 1 Day Protectant, read-out: PUCCRT 1 DP disease control
[13] = 24 h, 1 Day Protectant, rate 121.5 g/H, read-out: PUCCRT 1 DP disease control
[14] = 72 h, 3 Day Curative, read-out: PUCCRT 3 DC disease control
[15] = 72 h, 3 Day Curative, rate 121.5 g/H, read-out: PUCCRT 3 DC disease control

Compound | pest or weed control at 25 ppm [1, 6] [%] | pest or weed control at 25 ppm [1, 7] [%] | pest or weed control at 100 ppm [2, 8] [%] | pest or weed control at 121.5 g/ha [2, 9] [%] | pest or weed control at 100 ppm [2, 10] [%] | pest or weed control at 121.5 g/ha [2, 11] [%] | pest or weed control at 100 ppm [3] [%] | pest or weed control at 100 ppm [4, 12] [%] | pest or weed control at 121.5 g/ha [4, 13] [%] | pest or weed control at 100 ppm [4, 14] [%] | pest or weed control at 121.5 g/ha [4, 15] [%] | pest or weed control at 100 ppm [5] [%] | pest or weed control at 121.5 g/ha ([2]; 24 h, Wheat Leaf Blotch, 1 Day Protectant, rate 121.5 g/H (low volume application), read-out: Disease control SEPTTR 1 DP) [%] | pest or weed control at 121.5 g/ha ([2]; 72 h, Wheat Leaf Blotch, 3 Day Curative, rate 121.5 g/H (low volume application), read-out: Disease control SEPTTR 3 DC) [%] | pest or weed control at 121.5 g/ha ([4]; 24 h, Wheat Brown Rust, 1 Day Protectant, rate 121.5 g/H (low volume application), read-out: Disease control PUCCRT 1 DP) [%] | Disease Control PHAKPA 3DC ([1]; 25 ppm, 3 Day Curative) | PUCCRT 3 DC disease control ([4]; 3 Day Curative, rate 121.5 g/H)
CCCO[C@@H]1[C@@H](CCC(C)C)CCC[C@H](NC(=O)c2nccc(OC)c2OC(C)=O)C(=O)O[C@H]1C [Compound F64] | 80 to 100 | 80 to 100 | 80 to 100 | 80 to 100 | 80 to 100 | 80 to 100 | 0 to 80 | 80 to 100 | 80 to 100 | 80 to 100 | 80 to 100 | 80 to 100 |  |  |  |  | 
COc1ccnc(C(=O)N[C@H]2CCC[C@H](CCF)[C@@H](OCC(C)C)[C@H](C)OC2=O)c1OCOC(C)=O [Compound F128, ((2-(((3S,7R,8R,9S)-7-(2-fluoroethyl)-8-isobutoxy-9-methyl-2-oxooxonan-3-yl)carbamoyl)-4-methoxypyridin-3-yl)oxy)methyl acetate] | 80 to 100 | 80 to 100 | 80 to 100 | 80 to 100 | 80 to 100 | 80 to 100 | 0 to 80 | 80 to 100 | 80 to 100 | 80 to 100 | 80 to 100 | 80 to 100 |  |  |  |  | 
COc1ccnc(C(=O)N[C@H]2CCC[C@H](Cc3ccccc3)[C@@H](OCC(C)C)[C@H](C)OC2=O)c1OCOC(=O)C(C)C [Compound F151] | 80 to 100 | 80 to 100 | 80 to 100 | 80 to 100 | 80 to 100 | 80 to 100 | 0 to 80 | 80 to 100 | 80 to 100 | 80 to 100 | 80 to 100 | 80 to 100 |  |  |  |  | 
COc1ccnc(C(=O)N[C@H]2CCC[C@H](CC(F)F)[C@@H](Oc3ccccc3)[C@H](C)OC2=O)c1OCOC(C)=O [Compound F138] | 80 to 100 | 80 to 100 | 80 to 100 | 80 to 100 | 80 to 100 | 80 to 100 | 0 to 80 | 80 to 100 | 80 to 100 | 80 to 100 | 80 to 100 | 80 to 100 |  |  |  |  | 
COc1ccnc(C(=O)N[C@H]2CCC[C@H](Cc3ccc(F)cc3)[C@@H](OCC3CC3)[C@H](C)OC2=O)c1OC(C)=O [Compound F67] | 80 to 100 | 0 to 80 | 80 to 100 | 80 to 100 | 80 to 100 | 80 to 100 | 0 to 80 | 80 to 100 | 80 to 100 | 80 to 100 | 80 to 100 | 80 to 100 |  |  |  |  | 
CCCO[C@@H]1[C@@H](CCC(C)C)CCC[C@H](NC(=O)c2nccc(OC)c2OCOC(=O)COCC)C(=O)O[C@H]1C [Compound F161] | 80 to 100 | 80 to 100 | 80 to 100 | 80 to 100 | 80 to 100 | 80 to 100 | 80 to 100 | 80 to 100 | 80 to 100 | 80 to 100 | 80 to 100 | 80 to 100 |  |  |  |  | 
CCOCC(=O)OCOc1c(OC)ccnc1C(=O)N[C@H]1CCC[C@H](Cc2ccc(F)cc2F)[C@@H](OC(=O)c2ccco2)[C@H](C)OC1=O [Compound F193] | 0 to 80 | 0 to 80 |  |  |  |  | 80 to 100 |  |  |  |  | 80 to 100 | 80 to 100 | 0 to 80 | 80 to 100 |  | 
CC[C@H]1CCC[C@H](NC(=O)c2nccc(OC)c2OC(C)=O)C(=O)O[C@@H](C)[C@@H]1Oc1ccccc1 [Compound F81] | 80 to 100 | 80 to 100 | 80 to 100 | 80 to 100 | 80 to 100 | 80 to 100 | 0 to 80 | 80 to 100 | 80 to 100 | 80 to 100 | 80 to 100 | 80 to 100 |  |  |  |  | 
COc1ccnc(C(=O)N[C@H]2CCC[C@H](CCBr)[C@@H](Oc3ccccc3)[C@H](C)OC2=O)c1OC(C)=O [Compound F80] | 80 to 100 | 0 to 80 | 80 to 100 | 80 to 100 | 80 to 100 | 80 to 100 | 0 to 80 | 80 to 100 | 80 to 100 | 80 to 100 | 80 to 100 | 80 to 100 |  |  |  |  | 
COc1ccnc(C(=O)N[C@H]2CCC[C@H](CC3CCCC3)[C@@H](OCC3CC3)[C@H](C)OC2=O)c1OCOC(C)=O [Compound F117] | 80 to 100 | 80 to 100 | 80 to 100 | 80 to 100 | 80 to 100 | 80 to 100 | 80 to 100 | 80 to 100 | 80 to 100 | 80 to 100 | 80 to 100 | 80 to 100 |  |  |  |  | 
COc1ccnc(C(=O)N[C@H]2CCC[C@H](Cc3ccc(F)cc3)[C@@H](OCC3CC3)[C@H](C)OC2=O)c1OCOC(C)=O [Compound F96] | 80 to 100 |  | 80 to 100 | 80 to 100 | 80 to 100 | 80 to 100 | 0 to 80 | 80 to 100 | 80 to 100 | 80 to 100 |  | 80 to 100 |  |  |  | B (More than 0-Less than 80) | B (More than 0-Less than 80)
